Reference: ChEMBL document CHEMBL4507268 (2021)

Legend:
Conditions in all cases: Compound concentration 1.0 uM
[1] = target: Mitogen-activated protein kinase 9 (Homo sapiens) (UniProt P45984)
[2] = target: T1, Mitogen-activated protein kinase kinase kinase 3 (Homo sapiens) (UniProt Q99759)
T1 sequence (whole entry): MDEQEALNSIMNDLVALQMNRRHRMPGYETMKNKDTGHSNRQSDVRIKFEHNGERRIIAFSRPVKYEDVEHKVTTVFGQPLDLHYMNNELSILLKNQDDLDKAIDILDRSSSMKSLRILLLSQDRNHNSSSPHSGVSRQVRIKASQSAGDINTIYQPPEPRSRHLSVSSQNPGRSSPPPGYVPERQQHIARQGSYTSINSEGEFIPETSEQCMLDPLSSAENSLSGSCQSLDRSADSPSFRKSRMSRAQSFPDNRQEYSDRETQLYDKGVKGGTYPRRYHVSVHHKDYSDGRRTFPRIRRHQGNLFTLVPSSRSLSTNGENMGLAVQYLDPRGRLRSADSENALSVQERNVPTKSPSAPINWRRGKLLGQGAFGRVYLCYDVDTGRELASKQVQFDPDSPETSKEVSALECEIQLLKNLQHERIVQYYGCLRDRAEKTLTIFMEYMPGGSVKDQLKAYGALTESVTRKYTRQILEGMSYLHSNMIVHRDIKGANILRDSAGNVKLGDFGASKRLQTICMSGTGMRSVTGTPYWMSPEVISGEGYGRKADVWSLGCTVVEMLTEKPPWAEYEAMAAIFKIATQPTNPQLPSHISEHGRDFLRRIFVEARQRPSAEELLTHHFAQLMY

[3] = target: Serine/threonine-protein kinase mTOR (Homo sapiens) (UniProt P42345)
[4] = target: T2, Phosphorylase b kinase regulatory subunit alpha, liver isoform (Homo sapiens) (UniProt P46019)
T2 sequence (whole entry): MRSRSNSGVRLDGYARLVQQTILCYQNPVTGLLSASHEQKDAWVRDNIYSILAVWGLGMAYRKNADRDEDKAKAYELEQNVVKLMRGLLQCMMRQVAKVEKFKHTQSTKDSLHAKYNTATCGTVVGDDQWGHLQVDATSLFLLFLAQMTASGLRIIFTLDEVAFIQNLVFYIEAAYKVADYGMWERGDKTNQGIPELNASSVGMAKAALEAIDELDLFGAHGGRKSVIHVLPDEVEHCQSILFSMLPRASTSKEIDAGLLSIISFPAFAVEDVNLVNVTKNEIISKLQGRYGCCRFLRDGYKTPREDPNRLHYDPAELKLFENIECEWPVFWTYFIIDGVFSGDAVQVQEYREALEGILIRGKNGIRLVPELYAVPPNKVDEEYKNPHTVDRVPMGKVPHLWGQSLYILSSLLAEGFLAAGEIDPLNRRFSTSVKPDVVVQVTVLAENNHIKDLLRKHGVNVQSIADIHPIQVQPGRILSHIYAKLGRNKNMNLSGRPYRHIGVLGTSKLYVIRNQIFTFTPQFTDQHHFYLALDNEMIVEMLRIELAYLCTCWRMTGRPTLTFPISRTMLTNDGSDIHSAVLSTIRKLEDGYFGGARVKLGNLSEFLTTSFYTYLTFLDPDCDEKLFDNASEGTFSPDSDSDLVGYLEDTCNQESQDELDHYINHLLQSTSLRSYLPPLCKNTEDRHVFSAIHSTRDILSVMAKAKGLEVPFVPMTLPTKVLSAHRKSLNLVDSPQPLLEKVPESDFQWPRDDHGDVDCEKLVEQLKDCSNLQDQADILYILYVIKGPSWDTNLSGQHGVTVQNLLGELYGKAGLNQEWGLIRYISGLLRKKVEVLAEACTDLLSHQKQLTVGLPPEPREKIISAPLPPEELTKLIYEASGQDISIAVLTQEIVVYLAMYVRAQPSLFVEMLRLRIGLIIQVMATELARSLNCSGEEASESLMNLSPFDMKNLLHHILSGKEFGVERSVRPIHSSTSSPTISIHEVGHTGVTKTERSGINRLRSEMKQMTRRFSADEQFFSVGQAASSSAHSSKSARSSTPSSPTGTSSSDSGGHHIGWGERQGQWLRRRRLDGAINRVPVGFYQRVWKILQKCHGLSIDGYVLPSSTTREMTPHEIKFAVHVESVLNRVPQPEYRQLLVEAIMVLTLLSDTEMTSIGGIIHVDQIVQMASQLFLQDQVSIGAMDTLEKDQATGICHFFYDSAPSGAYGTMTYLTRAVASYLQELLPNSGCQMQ

[5] = target: T3, Serine/threonine-protein kinase D2 (Homo sapiens) (UniProt Q9BZL6)
T3 sequence (whole entry): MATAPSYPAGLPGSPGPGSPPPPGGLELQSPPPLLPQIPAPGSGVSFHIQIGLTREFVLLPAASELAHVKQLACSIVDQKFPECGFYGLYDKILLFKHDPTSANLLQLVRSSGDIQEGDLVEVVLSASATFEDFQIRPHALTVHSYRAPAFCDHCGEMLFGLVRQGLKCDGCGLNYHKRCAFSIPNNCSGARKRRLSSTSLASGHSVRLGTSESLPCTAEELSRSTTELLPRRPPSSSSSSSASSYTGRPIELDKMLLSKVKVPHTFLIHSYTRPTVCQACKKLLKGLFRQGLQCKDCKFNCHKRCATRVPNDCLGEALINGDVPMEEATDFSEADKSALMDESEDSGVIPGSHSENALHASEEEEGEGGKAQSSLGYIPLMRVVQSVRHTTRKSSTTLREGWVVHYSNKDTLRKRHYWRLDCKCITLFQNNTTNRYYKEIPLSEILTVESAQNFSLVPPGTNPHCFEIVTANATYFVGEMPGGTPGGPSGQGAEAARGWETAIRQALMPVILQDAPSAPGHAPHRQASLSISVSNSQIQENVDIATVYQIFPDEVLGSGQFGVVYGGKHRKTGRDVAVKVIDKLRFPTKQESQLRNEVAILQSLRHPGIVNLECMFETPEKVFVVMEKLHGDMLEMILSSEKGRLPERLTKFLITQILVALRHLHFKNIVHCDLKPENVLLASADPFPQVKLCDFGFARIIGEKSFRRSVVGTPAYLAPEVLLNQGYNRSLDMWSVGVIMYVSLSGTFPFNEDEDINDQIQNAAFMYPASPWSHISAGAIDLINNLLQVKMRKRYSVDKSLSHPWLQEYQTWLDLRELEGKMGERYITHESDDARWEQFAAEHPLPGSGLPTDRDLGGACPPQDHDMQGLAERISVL

[6] = target: PI3-kinase p110-alpha/p85-alpha (Homo sapiens) (UniProt P27986+P42336)

Measured: % residual kinase activity

Chain of Mitogen-activated protein kinase 9 (Homo sapiens) (P45984 whole entry, looked up): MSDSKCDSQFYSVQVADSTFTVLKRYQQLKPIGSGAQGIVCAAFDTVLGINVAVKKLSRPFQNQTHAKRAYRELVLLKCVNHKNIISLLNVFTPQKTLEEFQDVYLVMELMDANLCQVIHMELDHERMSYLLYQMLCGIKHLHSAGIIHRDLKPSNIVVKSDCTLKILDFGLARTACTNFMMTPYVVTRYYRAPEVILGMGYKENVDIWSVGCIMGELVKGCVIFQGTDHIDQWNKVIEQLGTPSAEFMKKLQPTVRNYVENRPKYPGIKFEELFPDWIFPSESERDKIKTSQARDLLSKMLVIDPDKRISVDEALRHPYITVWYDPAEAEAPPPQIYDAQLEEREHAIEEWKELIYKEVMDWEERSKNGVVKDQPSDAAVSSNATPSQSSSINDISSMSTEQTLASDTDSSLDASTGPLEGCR

CN1CCN(c2cnc3c(C4CCN(C(=O)c5ccc(OC(F)(F)F)cc5N)CC4)ncnc3c2)CC1 [BAY-885]
inactive: [1] 104% | [2] 94% | [3] 104% | [4] 112% | [5] 106% | [6] 98%
